# Source: patent US20070010454A1, “Method for treating tumor cells resulting in minimal liver toxicity” (priority 2005, published 2007)
# Legend:
# [1] = test system: tyrosinase; assay: Tyrosinase mediated GSH depletion assay; assay type: biochemical; details: for GSH depleted in tyrosinase/O2 metabolizing system (in words) / GSH depleted in tyrosinase/O2 metabolizing system: alkoxyphenol 100 µM, GSH 200 µM; for GSH depleted in tyrosinase/O2 metabolizing system, average equivalent: average over the four compounds named
# Description: Tyrosinase (10 µL; 2500 U/mL) was added to a mixture of alkoxyphenol (100 µM) and GSH (200 µM) in a final volume of 1 mL phosphate buffer (0.1 M, pH 7.4, DETAPAC 1 mM). The mixture was pre-incubated for 30, 90, and 180 min at 37° C. A 250 µL aliquot was added to trichloroacetic acid (25 µL; 30% w/v), vortexed and left at room temperature for 5 min. A 100 µL aliquot of the supernatant was then added to a mixture of Ellman's reagent 5,5′-dithiobis-(2-nitrobenzoic acid) DTNB (25 µL; 2 mg/mL) and Tris/HCl buffer (875 µL; 0.1 M, pH 8.94), and then vortexed. […] The standard curve for GSH measurement gave a regression coefficient of greater than 0.99 over the range of 5-200 µM GSH concentrations (data not shown).
# [2] = test system: isolated rat hepatocytes; details: reactive metabolite of 4-HA formed by liver P450s; cited from earlier work
# [3] = test system: rat liver microsomal P450; assay: Microsomal mediated GSH depletion assay (rat liver microsomes/NADPH/O2); assay type: in vitro ADME
# Description: Adult male Sprague-Dawley rats, 250-300 g, were obtained from Charles River Laboratories, USA, fed ad libitum, were allowed to acclimatize for 1 week on clay chip bedding in a room with a 12 h light photocycle, an environmental temperature of 21-23° C. and 50-60% relative humidity.
# The rats were anesthetized by sodium pentobarbital (60 mg/kg) before surgery in order to prepare the animal before liver removal. Hepatic microsomes were prepared by differential centrifugation as described previously (14). Briefly, the liver was removed and weighed in a beaker on ice. The liver was cut into pieces and washed by cold KCl (154 mM): Tris/HCl (50 mM, pH 7.4) buffer solution then suspended into 4 volumes of KCl:Tris/HCl buffer. The tissue was gently homogenized using an electrical homogenizer and subsequently by a handheld glass tissue grinder before centrifuging at 1935 g (Beckman Avanti J-251, Beckman Rotor-JA-25.5) at 4° C. for 15 mm to remove tissue and cell debris. The supernatant was centrifuged at 12,100 g at 4° C. for 15 min to remove subcellular organelles followed by centrifigation at 100,000 g (Beckman Optima LE-80K, Beckman Rotor-45 Ti) at 4° C. for 1 h. The supernatant was discarded and micorsomes were separated and suspended in 5 mL Tris/HCl buffer (100 mM, pH 7.4) containing 1 mM DETAPAC. The mixture was homogenized using a handheld glass tissue grinder after which an additional 15 mL Tris HCl buffer was added and the solution was aliquoted in 750 µL and stored at −70° C. for subsequent use. Microsomal protein content was determined by a modified Lowry method (15).
# The amount of GSH conjugates formed were determined colorimetrically using Ellman's reagent 5,5′-dithiobis-(2-nitrobenzoic acid) (DTNB) (13). Incubation mixtures contained in a final volume of 1 mL phosphate buffer (0.1 M, pH 7.4, DETAPAC 1 mM), 2 mg/mL rat liver microsomes, 200 µM GSH, 1 mM NADPH, and 100 µM alkoxyphenols. The mixtures were gently mixed at 37° C. from which 250 µL aliquots were taken at 30, 60, and 90 min time-interval points into Eppendorf tubes containing 25 µL trichloroacetic acid (30% w/v). Following protein precipitation and centrifugation for 5 min, the GSH levels of a 100 µL aliquot of the supernatant was determined by the addition of 0.1 M Tris/HCl buffer, pH 8.94 (875 µL), and 2 mg/mL DTNB (25 µL). The reduced DTNB formed was determined at 412 nm on a GBC spectral spectrophotometer.
# [4] = test system: B16-F0 melanoma cells; assay: MTT cytotoxicity assay in B16-F0 melanoma cell line; assay type: cell-based, mouse
# Description: The mouse B16-F0 cell line was obtained from American Type Culture Collection, USA. A frozen B16-F0 cell vial was washed twice with DMEM media before culturing in 8 mL DMEM supplemented with fetal calf serum (FCS) (10%) and streptomycin/penicillin (100 U/mL) in a T-25 flask (17). All the cell culture processes were carried out in a type II vertical laminar air flow chamber. The B16-F0 cultures were kept at 37° C. under a 5% CO2 atmosphere in a TS Autoflow CO2 Water-Jacketed Incubator (NUAIRE, USA). The culture medium was changed when acidification was indicated by the pH indicator and when needed. To detach the cells from the flask, the media was first removed from the flask. The remaining media was then washed out using sterile phosphate buffered saline (PBS) (2-3 mL). Subsequently, Versene (2-5 mL) was added to the flask and the sample was incubated for 2-3 min in the incubator to provide time for cells to detach. The detached cells were rinsed with ˜10 mL of pre-warmed sterile PBS to dilute Versene. The mixture was transferred into a 50 mL tube. The flask was additionally rinsed with sterile PBS and the content was added to the rest of the cells collected. The cells were then spun down at 800 RPM (Beckman GPR Centrifuge, USA) for 3-5 min. The PBS-Versene mixture was aspirated off. Pelletted cells were then re-suspended in DMEM media (supplemented by FCS 10% and antibiotics 100 U/mL) followed by splitting the mixture into one T-75 flask containing 30 mL media (25% of the media was supplemented from the previous culture step as conditioning media).
# To evaluate cytotoxicity, cells were obtained from exponentially growing 90-95% confluent cultures and seeded at 12,500 cells/well in 96-well plates. The cells were kept in 100 µL fresh DMEM media (supplemented by FCS 10% and antibiotics 100 U/mL) for 24 h to allow cell adhesion and environmental adaptation. Subsequently, the cells were treated with additional 150 µL DMEM (supplemented with FCS 10% and antibiotics 100 U/mL) containing various concentrations of alkoxyphenols for 1-4 days. At 24 h interval, the medium was removed and the wells were washed three times using DMEM media alone before adding 40 µL of 2 mg/mL yellow tetrazolium dye (3-(4,5-dimethylthiazolyl-2)-2,5-diphenyltetrazolium bromide) (MTT) (17). The plates were returned to the incubator for a period of 4 h. […] The plates were stored at room temperature in a dark place for an additional 2 h before reading them at 570 nm using XFluor Plate Reader (Tecan US, Inc, USA). […]
# Lethal concentrations (LC) which can cause 10% and 50% of the cell death were calculated from the linear regression equation derived from graphing the viability of the cells at day 2 (on x axis) versus the concentration of the drug (on y axis).
# [5] = test system: tyrosinase; assay: UV-VIS spectroscopy of tyrosinase mediated metabolism of alkoxyphenols; assay type: biochemical; details: alkoxyphenol 100 µM, tyrosinase 20 U/mL; compared with the other alkoxyphenols
# Description: UV-VIS spectroscopy of tyrosinase mediated metabolism of alkoxyphenols The spectra of a solution containing alkoxyphenol (100 µM) and tyrosinase (20 U/mL) were recorded in the absence and presence of GSH (200 µM) using a GBC UV-Visible spectral spectrophotometer (GC Scientific, Australia). The spectra of the mixture were obtained when GSH was added to the solution either before or after the addition of tyrosinase. The control spectrum was that of the respective alkoxyphenol solution (100 µM) in phosphate buffer [0.1 M (pH 7.4) containing DETAPAC (1 mM)].
# [6] = test system: melanoma; details: cited from earlier work
structure (smiles),measurement,setting,value
CCCOc1ccc(O)cc1 [4-nPP],GSH depleted in tyrosinase/O2 metabolizing system (in words),[1]; 90 min incubation,mole per mole basis
O=C1C=CC(=O)C=C1 [p-quinone],toxicity to isolated rat hepatocytes (in words),[2],highly toxic
CCOc1ccc(O)cc1 [4-EP],GSH depleted in tyrosinase/O2 metabolizing system (in words),[1]; 90 min incubation,mole per mole basis
"CCCCCCOc1ccc(O)cc1 [4-nHP, 4-n-hexyloxyphenol]",GSH depleted in tyrosinase/O2 metabolizing system,[1]; 90 min incubation,1.8 molecular equivalent of GSH per mole
same,metabolism by liver P450 microsomal preparation (in words),[3],minimal metabolism
same,glutathione depletion in microsomal preparations (in words),[3]; at calculated LC10 and LC50 lethal concentrations for B16-F0,minimally depleting glutathione
same,toxicity towards B16-F0 cells (in words),"[4]; MTT assay, 1-4 days",greatest toxicity
"CC(C)Oc1ccccc1O [2-iPP, 2-iso-propoxyphenol]",fold lower rate of oxidation by tyrosinase/O2 metabolizing system,[5],20 fold
same,"GSH depleted in tyrosinase/O2 metabolizing system, average equivalent",[1]; 90 min incubation,0.15 molar per mole
same,fold less toxic than the toxic value calculated from Eq. 2 (QSTR),"[4]; LC50 day 2, B16-F0",3.6 fold
"COc1ccc(O)cc1 [4-HA, 4-hydroxyanisole, reference compound]",GSH depleted in tyrosinase/O2 metabolizing system,[1]; 30 min incubation,1.8 molecular equivalent of GSH per mole
same,fold more toxic than the toxic value calculated from Eq. 2 (QSTR),"[4]; LC50 day 2, B16-F0",1.7 fold
same,clinical liver toxicity (in words),[6]; clinical trials terminated,serious liver damage occurred
same,clinical effect (in words),[6]; topical application and intra-arterial infusions into patients' legs,Depigmentation and tumor shrinkage
"CC(C)(C)Oc1ccc(O)cc1 [4-tBP, 4-t-butoxyphenol]",fold lower rate of oxidation by tyrosinase/O2 metabolizing system,[5],20 fold
same,"GSH depleted in tyrosinase/O2 metabolizing system, average equivalent",[1]; 90 min incubation,0.15 molar per mole
same,"GSH depletion by microsomal P450/NADPH/O2, fold less than 4-HA",[3]; 100 µM concentration,2.3 fold
same,glutathione depletion by microsomal P450 system (in words),[3]; 100 µM concentration,lowest rate of GSH depletion
same,glutathione depletion by microsomal P450 system (in words),"[3]; 100 µM concentration, listed as 4-t-butoxyphenol",lowest amount of glutathione depletion
same,GSH depleted by rat liver microsomes/NADPH/O2,"[3]; 90 min incubation, alkoxyphenol 100 µM, 2 mg/mL microsomes, 200 µM GSH",0.5 equivalents of GSH per mole
same,fold less toxic than the toxic value calculated from Eq. 2 (QSTR),"[4]; LC50 day 2, B16-F0",3.6 fold
CC(C)Oc1ccc(O)cc1 [4-iPP],"GSH depleted in tyrosinase/O2 metabolizing system, average equivalent",[1]; 90 min incubation,0.15 molar per mole
CCC(C)Oc1ccc(O)cc1 (stereo not shown) [4-sBP],"GSH depleted in tyrosinase/O2 metabolizing system, average equivalent",[1]; 90 min incubation,0.15 molar per mole
CCCCOc1ccc(O)cc1 [4-nBP],GSH depleted in tyrosinase/O2 metabolizing system,[1]; 90 min incubation,1.8 molecular equivalent of GSH per mole
CC(C)COc1ccc(O)cc1 [4-iBP],GSH depleted in tyrosinase/O2 metabolizing system,[1]; 90 min incubation,1.8 molecular equivalent of GSH per mole
